From patent US6908919B2, “Substituted polycyclic aryl and heteroaryl pyrazinones useful for selective inhibition of the coagulation cascade” (Pharmacia Corporation, priority 1999, dated 2005) come the findings set out here.

This test has as its target Human factor Xa (Homo sapiens, UniProt P00742). Nature of the test: Xa Assay. The class given is biochemical. Also noted: purchased Enzyme Research Laboratories, South Bend Ind. Particulars: at 30 µM inhibitor.

Sequence of Human factor Xa (P00742 41-179 limits assumed): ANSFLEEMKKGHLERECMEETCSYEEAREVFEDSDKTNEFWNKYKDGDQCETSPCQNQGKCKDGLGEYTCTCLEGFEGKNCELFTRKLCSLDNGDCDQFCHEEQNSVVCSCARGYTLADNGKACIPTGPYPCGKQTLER
Sequence of Human factor Xa (P00742 235-488 limits assumed): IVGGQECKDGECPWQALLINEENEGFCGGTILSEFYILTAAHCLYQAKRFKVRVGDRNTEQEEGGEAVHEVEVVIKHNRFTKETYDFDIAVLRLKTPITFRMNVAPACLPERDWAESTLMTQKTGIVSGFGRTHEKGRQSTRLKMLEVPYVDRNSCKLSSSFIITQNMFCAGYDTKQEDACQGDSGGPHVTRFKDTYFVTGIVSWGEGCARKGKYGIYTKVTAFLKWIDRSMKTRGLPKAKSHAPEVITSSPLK

With `Cc1c(Cl)nc(NCc2ccccc2)c(=O)n1CC(=O)NCc1ccc(C(=N)N)cc1` [1471-1], the “% Inhibition Factor Xa (30 µM)” value worked out at 10%. With `Cc1c(Cl)nc(NCCc2ccc(Cl)cc2)c(=O)n1CC(=O)NCc1ccc(C(=N)N)cc1` [1471-2] the figure was 10%. With `Cc1c(Cl)nc(NCc2ccncc2)c(=O)n1CC(=O)NCc1ccc(C(=N)N)cc1` [1471-3], the “% Inhibition Factor Xa (30 µM)” value came out at 0%. Then `Cc1c(Cl)nc(NCCN2CCOCC2)c(=O)n1CC(=O)NCc1ccc(C(=N)N)cc1` [1471-4], with 0%; and `Cc1c(Cl)nc(NCCc2ccncc2)c(=O)n1CC(=O)NCc1ccc(C(=N)N)cc1` [1471-5], with 12%; and `Cc1c(Cl)nc(NCCc2cccc(Cl)c2)c(=O)n1CC(=O)NCc1ccc(C(=N)N)cc1` [1471-6], with 14%. For `Cc1c(Cl)nc(NCCc2ccccc2)c(=O)n1CC(=O)NCc1ccc(C(=N)N)cc1` [1471-7], the “% Inhibition Factor Xa (30 µM)” value was found to be 4%.

With `Cc1c(Cl)nc(NCCc2cccnc2)c(=O)n1CC(=O)NCc1ccc(C(=N)N)cc1` [1471-8], the “% Inhibition Factor Xa (30 µM)” value was 27%. With `N=C(N)c1ccc(CNC(=O)Cn2c(-c3ccccc3)c(Cl)nc(NCc3ccccc3)c2=O)cc1` [1471-9] the figure was 29%; with `N=C(N)c1ccc(CNC(=O)Cn2c(-c3ccccc3)c(Cl)nc(NCCc3ccc(Cl)cc3)c2=O)cc1` [1471-10], 45%; with `N=C(N)c1ccc(CNC(=O)Cn2c(-c3ccccc3)c(Cl)nc(NCc3ccncc3)c2=O)cc1` [1471-11], 9%. In the case of `N=C(N)c1ccc(CNC(=O)Cn2c(-c3ccccc3)c(Cl)nc(NCCN3CCOCC3)c2=O)cc1` [1471-12], the “% Inhibition Factor Xa (30 µM)” value is 9%.

Regarding `N=C(N)c1ccc(CNC(=O)Cn2c(-c3ccccc3)c(Cl)nc(NCCc3ccncc3)c2=O)cc1` [1471-13], the “% Inhibition Factor Xa (30 µM)” value was 0%. As for `N=C(N)c1ccc(CNC(=O)Cn2c(-c3ccccc3)c(Cl)nc(NCCc3cccnc3)c2=O)cc1` [1471-16], the “% Inhibition Factor Xa (30 µM)” value is 23%.

With `N=C(N)c1ccc(CNC(=O)Cn2c(-c3ccc(Cl)cc3)c(Cl)nc(NCCc3ccc(Cl)cc3)c2=O)cc1` [1471-18], the “% Inhibition Factor Xa (30 µM)” value was found to be 26%. With `N=C(N)c1ccc(CNC(=O)Cn2c(-c3ccc(Cl)cc3)c(Cl)nc(NCCc3cccc(Cl)c3)c2=O)cc1` [1471-22] the figure was 28%; with `N=C(N)c1ccc(CNC(=O)Cn2c(-c3ccc(Cl)cc3)c(Cl)nc(NCCc3ccccc3)c2=O)cc1` [1471-23], 36%. With `N=C(N)c1ccc(CNC(=O)Cn2c(-c3cccc(Cl)c3)c(Cl)nc(NCc3ccccc3)c2=O)cc1` [1471-25] the figure was 31%. Consider `N=C(N)c1ccc(CNC(=O)Cn2c(-c3cccc(Cl)c3)c(Cl)nc(NCc3ccncc3)c2=O)cc1` [1471-27], for which the “% Inhibition Factor Xa (30 µM)” value came out at 16%.

With `N=C(N)c1ccc(CNC(=O)Cn2c(-c3cccc(Cl)c3)c(Cl)nc(NCCN3CCOCC3)c2=O)cc1` [1471-28], the “% Inhibition Factor Xa (30 µM)” value is 8%. Then `N=C(N)c1ccc(CNC(=O)Cn2c(-c3cccc(Cl)c3)c(Cl)nc(NCCc3ccncc3)c2=O)cc1` [1471-29], with 21%; and `N=C(N)c1ccc(CNC(=O)Cn2c(-c3cccc(Cl)c3)c(Cl)nc(NCCc3cccc(Cl)c3)c2=O)cc1` [1471-30], with 41%. Then `N=C(N)c1ccc(CNC(=O)Cn2c(-c3cccc(Cl)c3)c(Cl)nc(NCCc3ccccc3)c2=O)cc1` [1471-31], with 17%; and `N=C(N)c1ccc(CNC(=O)Cn2c(-c3cccc(Cl)c3)c(Cl)nc(NCCc3cccnc3)c2=O)cc1` [1471-32], with 25%. Then `COc1ccc(-c2c(Cl)nc(NCCc3ccc(Cl)cc3)c(=O)n2CC(=O)NCc2ccc(C(=N)N)cc2)cc1` [1471-34], with 24%; and `N=C(N)c1ccc(CNC(=O)Cn2c(-c3ccc4c(c3)OCO4)c(Cl)nc(NCc3ccccc3)c2=O)cc1` [1471-41], with 34%; and `N=C(N)c1ccc(CNC(=O)Cn2c(-c3ccc4c(c3)OCO4)c(Cl)nc(NCCc3ccc(Cl)cc3)c2=O)cc1` [1471-42], with 15%. Take `N=C(N)c1ccc(CNC(=O)Cn2c(-c3ccc4c(c3)OCO4)c(Cl)nc(NCc3ccncc3)c2=O)cc1` [1471-43]: the “% Inhibition Factor Xa (30 µM)” value amounted to 18%. Then `N=C(N)c1ccc(CNC(=O)Cn2c(-c3ccc4c(c3)OCO4)c(Cl)nc(NCCc3ccncc3)c2=O)cc1` [1471-45], with 24%. In the case of `N=C(N)c1ccc(CNC(=O)Cn2c(-c3ccc4c(c3)OCO4)c(Cl)nc(NCCc3cccc(Cl)c3)c2=O)cc1` [1471-46], the “% Inhibition Factor Xa (30 µM)” value was 21%. With `N=C(N)c1ccc(CNC(=O)Cn2c(-c3ccc4c(c3)OCO4)c(Cl)nc(NCCc3ccccc3)c2=O)cc1` [1471-47] the figure was 22%; with `N=C(N)c1ccc(CNC(=O)Cn2c(-c3ccc4c(c3)OCO4)c(Cl)nc(NCCc3cccnc3)c2=O)cc1` [1471-48], 17%. With `CCc1c(Cl)nc(NCCc2ccc(Cl)cc2)c(=O)n1CC(=O)NCc1ccc(C(=N)N)cc1` [1471-58] the figure was 0%; with `CCc1c(Cl)nc(NCc2ccncc2)c(=O)n1CC(=O)NCc1ccc(C(=N)N)cc1` [1471-59], 0%. Then `CCc1c(Cl)nc(NCCN2CCOCC2)c(=O)n1CC(=O)NCc1ccc(C(=N)N)cc1` [1471-60], with 0%. `CCc1c(Cl)nc(NCCc2ccncc2)c(=O)n1CC(=O)NCc1ccc(C(=N)N)cc1` [1471-61]: the “% Inhibition Factor Xa (30 µM)” value is 0%. In the case of `CCc1c(Cl)nc(NCCc2ccccc2)c(=O)n1CC(=O)NCc1ccc(C(=N)N)cc1` [1471-63], the “% Inhibition Factor Xa (30 µM)” value is listed as 2%. Then `CCc1c(Cl)nc(NCCc2cccnc2)c(=O)n1CC(=O)NCc1ccc(C(=N)N)cc1` [1471-64], with 2%; and `N=C(N)c1ccc(CNC(=O)Cn2c(-c3ccccc3)c(Cl)nc(NC3CCc4ccccc43)c2=O)cc1` (stereo not drawn) [1507-02], with 9%; and `N=C(N)c1ccc(CNC(=O)Cn2c(-c3ccccc3)c(Cl)nc(NCc3ccccc3Cl)c2=O)cc1` [1507-03], with 21%.

For the compound `N=C(N)c1ccc(CNC(=O)Cn2c(-c3ccccc3)c(Cl)nc(NCCCn3ccnc3)c2=O)cc1` [1507-05], the “% Inhibition Factor Xa (30 µM)” value was determined as 10%.

Regarding `N=C(N)c1ccc(CNC(=O)Cn2c(-c3ccccc3)c(Cl)nc(NCC(c3ccccc3)c3ccccc3)c2=O)cc1` [1507-09], the “% Inhibition Factor Xa (30 µM)” value is 13%. With `N=C(N)c1ccc(CNC(=O)Cn2c(-c3ccccc3)c(Cl)nc(NC3CCCc4ccccc43)c2=O)cc1` (stereo not drawn) [1507-16], the “% Inhibition Factor Xa (30 µM)” value is 18%. Then `N=C(N)c1ccc(CNC(=O)Cn2c(-c3ccccc3)c(Cl)nc(NCCC3=CCCCC3)c2=O)cc1` [1507-17], with 16%; and `N=C(N)c1ccc(CNC(=O)Cn2c(-c3ccccc3)c(Cl)nc(NCCCN3CCCC3=O)c2=O)cc1` [1507-19], with 4%.

Regarding `N=C(N)c1ccc(CNC(=O)Cn2c(-c3ccccc3)c(Cl)nc(NC3CCC3)c2=O)cc1` [1507-21], the “% Inhibition Factor Xa (30 µM)” value was 23%. Then `N=C(N)c1ccc(CNC(=O)Cn2c(-c3ccccc3)c(Cl)nc(NC3CCCCCC3)c2=O)cc1` [1507-29], with 4%; and `N=C(N)c1ccc(CNC(=O)Cn2c(-c3ccccc3)c(Cl)nc(NC(c3ccccc3)c3ccccc3)c2=O)cc1` [1507-35], with 28%; and `N=C(N)c1ccc(CNC(=O)Cn2c(-c3ccccc3)c(Cl)nc(NC3CCS(=O)(=O)C3)c2=O)cc1` (stereo not drawn) [1507-36], with 0%. `N=C(N)c1ccc(CNC(=O)Cn2c(-c3ccccc3)c(Cl)nc(NCc3cc(C(F)(F)F)cc(C(F)(F)F)c3)c2=O)cc1` [1507-40]: the “% Inhibition Factor Xa (30 µM)” value is reported as 11%. With `N=C(N)c1ccc(CNC(=O)Cn2c(-c3ccccc3)c(Cl)nc(NCCCCc3ccccc3)c2=O)cc1` [1507-43] the figure was 21%.

For `N=C(N)c1ccc(CNC(=O)Cn2c(-c3ccccc3)c(Cl)nc(NCCc3ccc(Cl)c(Cl)c3)c2=O)cc1` [1507-44], the “% Inhibition Factor Xa (30 µM)” value was 9%.

As to `N=C(N)c1ccc(CNC(=O)Cn2c(-c3ccccc3)c(Cl)nc(NCc3ccc(Cl)cc3)c2=O)cc1` [1507-46], the “% Inhibition Factor Xa (30 µM)” value is 8%.

As for `CN(C)CCCNc1nc(Cl)c(-c2ccccc2)n(CC(=O)NCc2ccc(C(=N)N)cc2)c1=O` [1507-47], the “% Inhibition Factor Xa (30 µM)” value is listed as 19%. `N=C(N)c1ccc(CNC(=O)Cn2c(-c3ccccc3)c(Cl)nc(NCC3COc4ccccc4O3)c2=O)cc1` (stereo not drawn) [1512-01]: the “% Inhibition Factor Xa (30 µM)” value was found to be 4%. With `COc1cccc(CNc2nc(Cl)c(-c3ccccc3)n(CC(=O)NCc3ccc(C(=N)N)cc3)c2=O)c1OC` [1512-02], the “% Inhibition Factor Xa (30 µM)” value worked out at 3%. With `COc1ccc(CCNc2nc(Cl)c(-c3ccccc3)n(CC(=O)NCc3ccc(C(=N)N)cc3)c2=O)cc1OC` [1512-05] the figure was 10%; with `N=C(N)c1ccc(CNC(=O)Cn2c(-c3ccccc3)c(Cl)nc(NCCCc3ccccc3)c2=O)cc1` [1512-06], 4%. Then `CCOc1ccccc1CNc1nc(Cl)c(-c2ccccc2)n(CC(=O)NCc2ccc(C(=N)N)cc2)c1=O` [1512-11], with 5%; and `CCCCC(CC)Nc1nc(Cl)c(-c2ccccc2)n(CC(=O)NCc2ccc(C(=N)N)cc2)c1=O` (stereo not drawn) [1512-12], with 5%. With `CCCCNc1nc(Cl)c(-c2ccccc2)n(CC(=O)NCc2ccc(C(=N)N)cc2)c1=O` [1512-14], the “% Inhibition Factor Xa (30 µM)” value is recorded as 7%. With `CN(C)CCNc1nc(Cl)c(-c2ccccc2)n(CC(=O)NCc2ccc(C(=N)N)cc2)c1=O` [1512-15] the figure was 6%.

For `N=C(N)c1ccc(CNC(=O)Cn2c(-c3ccccc3)c(Cl)nc(NC3CCCCCC3)c2=O)cc1` [1512-16], the “% Inhibition Factor Xa (30 µM)” value came out at 10%.
